Experimental findings from patent US6410584B1, “Method for inhibiting neoplastic cells with indole derivatives” (Cell Pathways, Inc., priority 1998, dated 2002) are described below.

Molecules are shown by their SMILES.

What is called melting point is the temperature of the solid-liquid transition. With `CCCCS(=O)(=O)NC(=O)c1ccc2[nH]cc(Cc3ccc(Cl)cc3Cl)c2c1` [Compound 48, 5-(1-butanesulfonylcarbamoyl)-3-(2,4-dichlorobenzyl)indole], the melting point fell in the range of 165.5 to 166.2 °C.

In turn, `CCCCS(=O)(=O)NC(=O)c1ccc2c(Cc3ccc(Cl)cc3Cl)c(C)[nH]c2c1` [Compound 90, 6-(1-butanesulfonylcarbamoyl)-3-(2,4-dichlorobenzyl)-2-methylindole] registered a melting point of 249 to 250 °C.

For the compound `CCCS(=O)(=O)NC(=O)c1ccc2[nH]c(C)c(Cc3ccc(Cl)cc3Cl)c2c1` [Compound 91, 3-(2,4-dichlorobenzyl)-2-methyl-5-(1-propanesulfonylcarbamoyl)indole], the melting point is 161 to 163 °C.

For the compound `Cc1[nH]c2ccc(C(=O)NS(=O)(=O)c3ccccc3)cc2c1Cc1ccc(Cl)cc1Cl` [Compound 93, 5-(benzenesulfonylcarbamoyl)-3-(2,4-dichlorobenzyl)-2-methylindole], the melting point is 244 to 245 °C.

Turning to `CCCCCCS(=O)(=O)NC(=O)c1ccc2[nH]c(C)c(Cc3ccc(Cl)cc3Cl)c2c1` [Compound 94, 3-(2,4-dichlorobenzyl)-5-(1-hexanesulfonylcarbamoyl)-2-methylindole], the melting point is 183 to 185 °C.

The compound `CCCCCS(=O)(=O)NC(=O)c1ccc2[nH]c(C)c(Cc3ccc(-c4ccccc4)cc3)c2c1` [Compound 95, 3-(biphenyl-4-ylmethyl)-2-methyl-5-(1-pentanesulfonylcarbamoyl)indole] displayed a melting point of 189 to 190 °C.

Compound `CCCCCS(=O)(=O)NC(=O)c1ccc2[nH]c(C)c(Cc3ccccc3Cl)c2c1` [Compound 96, 3-(2-chlorobenzyl)-2-methyl-5-(1-pentanesulfonylcarbamoyl)indole] returned a melting point of 175 to 177 °C.

On to `CCCCS(=O)(=O)NC(=O)c1ccc2[nH]c(C)c(C(=O)c3ccc(Cl)cc3Cl)c2c1` [Compound 97, 5-(1-butanesulfonylcarbamoyl)-3-(2,4-dichlorobenzoyl)-2-methylindole], for which the melting point lay within 241 to 243 °C.

`Cc1[nH]c2ccc(C(=O)NS(=O)(=O)CCC(C)C)cc2c1Cc1ccc(Cl)cc1Cl` [Compound 98, 3-(2,4-dichlorobenzyl)-2-methyl-5-(3-methyl-1-butanesulfonylcarbamoyl)indole] registered a melting point of 167 to 169 °C.

The compound `CCCCCS(=O)(=O)NC(=O)c1ccc2[nH]c(C)c(Cc3ccc(OCc4ccccc4)cc3)c2c1` [Compound 100, 3-(4-benzyloxybenzyl)-2-methyl-5-(1-pentanesulfonylcarbamoyl)indole] came in with a melting point of 180 to 184 °C.

Compound `CCCCCS(=O)(=O)NC(=O)c1ccc2[nH]c(CCC)c(Cc3ccc(Cl)cc3Cl)c2c1` [Compound 101, 3-(2,4-dichlorobenzyl)-5-(1-pentanesulfonylcarbamoyl)-2-propylindole] displayed a melting point of 168 to 169 °C.

In turn, `Cc1[nH]c2ccc(C(=O)NS(=O)(=O)C(F)(F)F)cc2c1Cc1ccc(Cl)cc1Cl` [Compound 113, 3-(2,4-dichlorobenzyl)-2-methyl-5-(trifluoromethanesulfonylcarbamoyl)indole] showed a melting point of 201 to 205 °C.

Regarding `CCCCS(=O)(=O)NC(=O)c1ccc2c(C)c(Cc3ccc(Cl)cc3Cl)[nH]c2c1` [Compound 121, 6-(1-butanesulfonylcarbamoyl)-2-(2,4-dichlorobenzyl)-3-methylindole], the melting point lay in the range of 215.5 to 216.1 °C.
